Source: patent US6852310B2, “Skin lightening agents, compositions and methods” (Unilever Home & Personal Care USA division of Conopco, Inc., priority 2002, dated 2005)

How the values were obtained:
B16 mouse melanoma cells = test: Melanin synthesis in B16 mouse melanoma cells (cell based assay); details: 6.25 micromolar, 72 hours, melanin in medium read at 530-nm, read-out: % of Control (Melanin Synthesis)
Description: This experiment was carried out using a cell based assay.
B16 mouse melanoma cells were utilized in the following experiment to evaluate the efficacy of skin lightening agents. B16 cells were plated in 96-well microtiter plates at a density of 5000 cells per well and cultured overnight in Dulbecco's Modified Eagle's Medium (phenol red free) containing 10% fetal bovine serum and 1% penicillin/streptomycin at 37° C. in the presence of 5% CO2. After 24 hours, the medium was replaced with fresh growth medium containing the treatments. All cultures were incubated for 72 hours at which time melanin was visible in the control treatment. The melanin-containing medium was transferred to a clean 96-well plate and quantified by reading the absorbency at 530-nm. Cell viability was assessed by measurement of lactate dehydrogenase levels to ensure the decrease in melanin was not a result of cellular toxicity.

mushroom tyrosinase = test: Mushroom Tyrosinase Assay; type: biochemical; details: for tyrosinase activity, % of ethanol control: slope of 475-nm absorbency vs. untreated ethanol control, L-DOPA substrate
Description: Mushroom tyrosinase inhibition is indicative of reduction in melanin synthesis, thereby showing skin lightening effect.
Into each well of a 96-well plate, 150 microliters of phosphate buffer (100 mM, pH 7.0), 10 microliters of L-DOPA (L-3, 4-Dihydroxyphenylalanine, 10 mM), and 20 microliters of skin lightening agent (dissolved in ethanol, which is the control) were added. Following an initial measurement of background absorbency at 475-nm, 20 microliters of mushroom tyrosinase (Sigma T-7755; 6050 units/ml) was added and incubated at room temperature.
Absorbency is read at 475-nm over the following time points: 0, 2, 4, and 6.5 minutes. The data is plotted as 475-nm absorbency vs. time (minutes) and the slope of the line is calculated (ΔAbs 475 nm/min). Values are expressed as the percentage of the respective untreated ethanol control reaction. [formula]

tyrosinase activity, % of ethanol control (mushroom tyrosinase; 0.1 uM) | tyrosinase activity, % of ethanol control (mushroom tyrosinase; 1 uM) | tyrosinase activity, % of ethanol control (mushroom tyrosinase; 10 uM) | tyrosinase activity, % of ethanol control (mushroom tyrosinase; 100 uM) | skin lightening effectiveness (in words, from tyrosinase data) (mushroom tyrosinase; conclusion drawn from Table 8) | SMILES | activity at 6.25 µM (B16 mouse melanoma cells) [%]
72.7 % of Control | 46.3 % of Control | 30.8 % of Control | 20.7 % of Control |  | CCc1ccc(O)cc1O [4-Ethyl Resorcinol] | 15.6
104 % of Control | 100 % of Control | 108 % of Control | 117 % of Control | effective in skin lightening | O=c1ccc2ccc(O)cc2o1 [7-Hydroxy Coumarin, 7-hydroxy coumarin] | 
75.1 % of Control | 51.0 % of Control | 53.0 % of Control | 53.4 % of Control |  | CNC(=O)/C=C\c1ccc(O)cc1O [Resorcinol Amide 1] | 13.1
84.2 % of Control | 59.5 % of Control | 58.0 % of Control | 57.9 % of Control |  | COCCNC(=O)/C=C\c1ccc(O)cc1O [Resorcinol Amide 2] | 13.7
